Source: PubChem BioAssay (NCI)
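Five compound concentrations were applied to cells in 96-well plates for 48 hours; endpoints were derived by simple linear interpolation of the resulting dose-response curve. GI50 marks 50% less growth. TGI: total growth inhibition.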

Legend:
Assay in all cases: growth of human tumour cells (NCI), 48 h
A498 renal = system: A498 renal
ACHN renal = system: ACHN renal
BT-549 breast = system: BT-549 breast
HOP-62 NSCLC = system: HOP-62 NSCLC
HOP-92 NSCLC = system: HOP-92 NSCLC
HT29 colon = system: HT29 colon
MDA-MB-231 breast = system: MDA-MB-231 breast
MOLT-4 leukemia = system: MOLT-4 leukemia
SK-OV-3 ovarian = system: SK-OV-3 ovarian
UACC-62 melanoma = system: UACC-62 melanoma

| SMILES | GI50 (A498 renal) | TGI (A498 renal) | GI50 (ACHN renal) | TGI (ACHN renal) | GI50 (BT-549 breast) | TGI (BT-549 breast) | GI50 (HOP-62 NSCLC) | TGI (HOP-62 NSCLC) | GI50 (HOP-92 NSCLC) | TGI (HOP-92 NSCLC) | GI50 (HT29 colon) | TGI (HT29 colon) | GI50 (MDA-MB-231 breast) | TGI (MDA-MB-231 breast) | GI50 (MOLT-4 leukemia) | TGI (MOLT-4 leukemia) | GI50 (SK-OV-3 ovarian) | TGI (SK-OV-3 ovarian) | GI50 (UACC-62 melanoma) | TGI (UACC-62 melanoma) |
| --- | --- | --- | --- | --- | --- | --- | --- | --- | --- | --- | --- | --- | --- | --- | --- | --- | --- | --- | --- | --- |
| CCN1CCN(c2nc(NNC(=O)Cc3ccccc3)nc(N3CCN(C(c4ccccc4)c4ccccc4)CC3)n2)CC1 | 7.3 µM | 20.9 µM | 1.65 µM | 3.07 µM | 1.67 µM | 3.61 µM | 2.06 µM | 5.08 µM | 1.89 µM | 4.7 µM | 2.24 µM | 5.66 µM | 1.99 µM | 3.69 µM | 2.63 µM | 8.39 µM | 2.09 µM | 4.48 µM | 1.71 µM | 3.46 µM |
| COc1ccc(C(=O)c2cc(OC)c(OC)c(OC)c2)cc1OC(C)=O | 1.61 µM | 6.43 µM | 0.0379 µM | > 100 µM | < 0.0199 µM | > 67.5 µM | 0.0618 µM | > 100 µM | 1.73 µM | > 100 µM | 1.15 µM | > 100 µM | 0.0369 µM | > 100 µM | < 0.0199 µM | > 43.3 µM | 0.0817 µM | > 100 µM | 0.448 µM | > 100 µM |
| CC[C@@]1(O)C(=O)NCc2c1cc1n(c2=O)Cc2cc3ccccc3nc2-1 | 3.95 µM | 53.1 µM | 0.578 µM | – | 9.04 µM | > 100 µM | 0.42 µM | 4.31 µM | – | > 29.4 µM | 9.05 µM | > 93.7 µM | > 100 µM | > 100 µM | 0.3 µM | 2.2 µM | 8.68 µM | > 100 µM | 1.87 µM | > 100 µM |
| COc1cc(C)c(C(=O)O[C@H]2[C@H](O[C@H]3[C@@H](O)COC(O[C@H]4C[C@H]5[C@@H]6CC=C7C[C@@H](O)CC[C@]7(C)[C@H]6CC[C@]5(C)[C@H]4[C@H](C)C(=O)CCC(C)C)[C@@H]3OC(C)=O)OC[C@@H](O)[C@@H]2O)c(C)c1 (stereo partly drawn) | < 0.01 µM | < 0.01 µM | 0.0767 µM | 18.6 µM | < 0.01 µM | 5.5 µM | 0.0125 µM | 3.65 µM | < 0.01 µM | 2.58 µM | 0.157 µM | 15.7 µM | 0.517 µM | 16.1 µM | < 0.01 µM | 0.704 µM | 0.141 µM | 2.73 µM | < 0.01 µM | < 0.01 µM |
| O=C(c1ccccc1)C1C(C(=O)c2ccccc2)N1Cc1ccccc1 (stereo not drawn) | – | > 100 µM | – | > 100 µM | – | 72 µM | – | > 100 µM | – | > 100 µM | – | > 100 µM | – | > 100 µM | – | > 100 µM | – | > 100 µM | – | 70.8 µM |
| C/C(=C\c1ccc(Cl)cc1)C(C)(C)C(=O)O | – | > 100 µM | – | > 100 µM | – | > 100 µM | – | > 100 µM | – | > 100 µM | – | > 100 µM | – | > 100 µM | – | > 100 µM | – | > 100 µM | – | > 100 µM |
| CN(C)C[C@H]1CC[C@@H](CN(C)C)C1=O | – | > 50 µM | – | 15.1 µM | – | 14.1 µM | – | > 50 µM | – | 20.5 µM | – | 21.1 µM | – | 17.3 µM | – | 4.69 µM | – | > 50 µM | – | 16.6 µM |
| O=C1c2ccccc2C(=O)c2c1ccc(C(Br)Br)c2[N+](=O)[O-] | 1.67 µM | 7.73 µM | 1.53 µM | 2.86 µM | 2.51 µM | 8.3 µM | 1.42 µM | 2.99 µM | 1.7 µM | 3.3 µM | 1.72 µM | 3.24 µM | 1.55 µM | 3.13 µM | 1.23 µM | 3.43 µM | 14.1 µM | 27.1 µM | 1.31 µM | 3.1 µM |
| CC(=O)OCC1OC(OC2C(COC(C)=O)OC(OCCC[S-])C(OC(C)=O)C2OC(C)=O)C(OC(C)=O)C(OC(C)=O)C1OC(C)=O.[Au+].c1ccc(CN2[CH-]N(Cc3ccccc3)C(c3ccccc3)=C2c2ccccc2)cc1 (stereo not drawn) | 3.41 µM | 11.1 µM | 2.9 µM | 10.6 µM | 3.37 µM | 14.8 µM | 3.75 µM | 18.2 µM | 2.37 µM | 6.24 µM | 3.23 µM | 13.6 µM | 2.38 µM | 5.93 µM | 3.42 µM | 26 µM | 3.06 µM | 12.6 µM | 2.63 µM | 8.96 µM |
| COc1ccc(-c2ccc3c(NC(=O)C4CC4)n[nH]c3n2)cc1 | > 25 µM | > 25 µM | > 25 µM | > 25 µM | > 14.3 µM | > 25 µM | 7.64 µM | > 22 µM | 8.02 µM | > 25 µM | > 25 µM | > 25 µM | > 25 µM | > 25 µM | > 25 µM | > 25 µM | 19.6 µM | > 25 µM | > 25 µM | > 25 µM |
